Data as given in patent publication US10563263B2, “Genetic polymorphisms associated with statin response and cardiovascular diseases, methods of detection and uses thereof” (CELERA CORPORATION, priority 2010, dated 2020).

How the values were obtained:
[1] = system: CHD (fatal CHD, definite non-fatal MI, or revascularization); assay: CARE: SNP by pravastatin treatment interaction, logistic regression (synergy index), CHD endpoint; type: in vivo, human
Source text: CARE was a secondary prevention trial and WOSCOPS was a primary prevention trial.
The CHD endpoint was defined in the analyses herein of CARE as a composite endpoint of fatal CHD, definite non-fatal MI, or revascularization, and was defined in the analyses herein of WOSCOPS as a composite endpoint of death from CHD, nonfatal MI, or revascularization. In both the CARE and WOSCOPS analyses herein, the CVD endpoint was defined as a composite endpoint of CHD or stroke. […] Revascularization, which can include percutaneous transluminal coronary angioplasty (PTCA), stent placement, and coronary artery bypass graft (CABG), are medical interventions that indicate the presence of CHD.
Cohort and case-only study designs were used to identify SNPs associated with response to statin treatment.
For each SNP, a logistic regression model having treatment status as the dependent variable and SNP as the independent predictor variable was performed, with terms for age, sex and race included in the model as covariates. The anti-log of the regression coefficient corresponding to the SNP is an estimate of the synergy index (SI) (Davis et al., “Imputing gene-treatment interactions when the genotype distribution is unknown using case-only and putative placebo analyses-a new method for the Genetics of Hypertension Associated Treatment (GenHAT) study”, Statistics in Medicine 23: (2004), pages 2413-2427). The SI is a ratio of odds ratios: for example in the CARE and WOSCOPS studies, the SI represents the factor by which the odds-ratio of statin treatment, compared with placebo, among major homozygous individuals is multiplied by in order to obtain the odds-ratio of treatment vs. placebo among heterozygous individuals; and multiplied by a second time to obtain the odds-ratio of treatment vs. placebo in minor homozygous individuals. The case-only study design results in a valid estimate of the SI under the assumption that genotype and treatment are independent in the population. In a randomized clinical trial, genotype and treatment are independent by design. The p-value for the regression coefficient corresponding to the SNP results from a test of the null hypothesis that the regression coefficient is equal to zero (SI is equal to one) and thus small p-values indicate the SI is unlikely equal to one and that the effect of treatment likely differs by genotype.
A case-only study design was used to test whether the reduction of CHD events by statin therapy (for CARE and WOSCOPS studies) differed according to genotype (a treatment by SNP interaction) for each SNP evaluated in the study.

myocyte cultures = settings: animal models and myocyte cultures; compared to lipophilic statins; cited from earlier work

CC[C@H](C)C(=O)O[C@H]1C[C@H](O)C=C2C=C[C@H](C)[C@H](CC[C@@H](O)C[C@@H](O)CC(=O)O)[C@H]21 [Pravastatin, pravastatin]
CARE OR ([1]; rs3798544 allele A vs G (ref), Source cohort): 1.47
CARE OR ([1]; rs3998860 allele A vs G (ref), Source cohort): 0.58
CARE OR ([1]; rs4289236 allele A vs G (ref), Source cohort): 1.37
CARE OR ([1]; rs4611134 allele A vs G (ref), Source cohort): 1.54
CARE OR ([1]; rs4643388 allele G vs A (ref), Source cohort): 1.32
CARE OR ([1]; rs4682522 allele C vs A (ref), Source cohort): 0.59
CARE OR ([1]; rs4830819 allele G vs A (ref), Source cohort): 0.57
CARE OR ([1]; rs4869033 allele G vs A (ref), Source cohort): 0.31
CARE OR ([1]; rs4924215 allele A vs G (ref), Source cohort): 1.77
CARE OR ([1]; rs4986146 allele A vs G (ref), Source cohort): 0.62
CARE OR ([1]; rs4993917 allele A vs C (ref), Source cohort): 0.57
CARE OR ([1]; rs5017584 allele A vs G (ref), Source cohort): 1.61
CARE OR ([1]; rs6075209 allele A vs G (ref), Source cohort): 0.63
CARE OR ([1]; rs6080603 allele A vs C (ref), Source cohort): 0.59
CARE OR ([1]; rs6491586 allele G vs A (ref), Source cohort): 1.59
CARE OR ([1]; rs6505669 allele G vs A (ref), Source cohort): 1.70
CARE OR ([1]; rs6911817, allele A1 A (non-ref), A2 G (ref), source cohort, endpoint/model not given): 2.15
CARE OR ([1]; rs7094941, allele A1 G (non-ref), A2 A (ref), source cohort, endpoint/model not given): 0.78
CARE OR ([1]; rs7179134 allele A vs G (ref), Source cohort): 3.54
CARE OR ([1]; rs7193741 allele A vs C (ref), Source cohort): 2.16
CARE OR ([1]; rs7327364 allele A vs G (ref), Source cohort): 0.69
CARE OR ([1]; rs7497613, allele A1 A (non-ref), A2 G (ref), source cohort, endpoint/model not given): 0.65
CARE OR ([1]; rs7616936, allele A1 C (non-ref), A2 A (ref), source cohort, endpoint/model not given): 1.47
CARE OR ([1]; rs7705993 allele G vs A (ref), Source cohort): 1.50
CARE OR ([1]; rs7767024, allele A1 A (non-ref), A2 G (ref), source cohort, endpoint/model not given): 1.32
CARE OR ([1]; rs7910196, allele A1 G (non-ref), A2 A (ref), source cohort, endpoint/model not given): 1.36
CARE OR ([1]; rs8051893 allele A vs G (ref), Source cohort): 0.69
CARE OR ([1]; rs8109631 allele A vs G (ref), Source cohort): 1.53
CARE OR ([1]; rs9375683 allele G vs A (ref), Source cohort): 1.63
CARE OR ([1]; rs9436636 allele A vs G (ref), Source cohort): 1.34
CARE OR ([1]; rs9446187 allele A vs G (ref), Source cohort): 1.92
CARE OR ([1]; rs9658127, allele A1 A (non-ref), A2 G (ref), source cohort, endpoint/model not given): 2.03
CARE OR ([1]; rs10088505 allele A vs G (ref), Source Caseonly): 1.52
CARE OR ([1]; rs10088524, allele A1 G (non-ref), A2 A (ref), source cohort, endpoint/model not given): 1.46
CARE OR ([1]; rs10103297, allele A1 A (non-ref), A2 G (ref), source cohort, endpoint/model not given): 1.84
CARE OR ([1]; rs10120126 allele G vs A (ref), Source CaseOnly): 0.53
CARE OR ([1]; rs10189905 allele C vs A (ref), Source cohort): 0.50
CARE OR ([1]; rs10500736 allele G vs A (ref), Source cohort): 0.61
CARE OR ([1]; rs10517923 allele A vs G (ref), Source cohort): 1.62
CARE OR ([1]; rs10814422 allele G vs A (ref), Source cohort): 0.64
CARE OR ([1]; rs10849442 allele A vs G (ref), Source Caseonly): 0.56
CARE OR ([1]; rs10875941, allele A1 G (non-ref), A2 A (ref), source cohort, endpoint/model not given): 0.73
CARE OR ([1]; rs10973013 allele A vs G (ref), Source cohort): 0.59
CARE OR ([1]; rs11076320 allele C vs A (ref), Source cohort): 0.64
CARE OR ([1]; rs11082492 allele A vs C (ref), Source cohort): 1.46
CARE OR ([1]; rs11925875 allele A vs G (ref), Source cohort): 0.72
CARE OR ([1]; rs12556591 allele G vs A (ref), Source cohort): 0.57
CARE OR ([1]; rs12657484, allele A1 G (non-ref), A2 A (ref), source cohort, endpoint/model not given): 1.36
CARE OR ([1]; rs13279522 allele G vs A (ref), Source cohort): 0.62
CARE OR ([1]; rs13314266 allele G vs A (ref), Source cohort): 0.60
CARE OR ([1]; rs13318232 allele G vs A (ref), Source cohort): 0.60
CARE OR ([1]; rs16861467, allele A1 G (non-ref), A2 A (ref), source cohort, endpoint/model not given): 0.60
CARE OR ([1]; rs17076974 allele A vs G (ref), Source cohort): 1.46
CARE OR ([1]; rs17546598 allele A vs G (ref), Source cohort): 1.57
CARE OR ([1]; rs17706237 allele G vs A (ref), Source CaseOnly): 1.80
CARE OR ([1]; rs17716275, allele A1 A (non-ref), A2 G (ref), source cohort, endpoint/model not given): 1.91
CARE OR ([1]; rs72746987 allele A vs G (ref), Source cohort): 0.43
myopathic potential (myocyte cultures): low myopathic potential
